Key:
Format in all cases: in vivo
Conditions in all cases: applied at 125 g/ha, evaluated after 13 days
[1] = test system: Ipomoea hederacea (IPOHE); assay: Pre-emergence herbicidal glasshouse test (Table B1)
Outline: (§1)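 Application rate was 500 g/h unless otherwise indicated, as a spray prepared from acetone/water (50:50) containing 0.5% Tween 20. Treatment followed one day (pre-emergence) or 8 days (post-emergence) of glasshouse growth, and percentage plant damage was assessed 13 days later on a 1–5 scale.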

[2] = test system: Abutilon theophrasti (ABUTH); assay: as above
Outline: as §1

[3] = test system: Amaranthus retoflexus (AMARE); assay: as above
Outline: as §1

[4] = test system: Echinochloa crus-galh (ECHCG); assay: as above
Outline: as §1

Setaria faberi (SETFA) [5] = assay: as above
Outline: as §1

[6] = test system: Ipomoea hederacea (IPOHE); assay: Post-emergence herbicidal glasshouse test (Table B1)
Outline: as §1

[7] = test system: Abutilon theophrasti (ABUTH); assay: as above
Outline: as §1

[8] = test system: Amaranthus retoflexus (AMARE); assay: as above
Outline: as §1

[9] = test system: Echinochloa crus-galh (ECHCG); assay: as above
Outline: as §1

Setaria faberi (SETFA) [10] = assay: as above
Outline: as §1

SMILES	PRE Application IPOHE, percentage damage on five-point scale [1]	PRE Application ABUTH, percentage damage on five-point scale [2]	PRE Application AMARE, percentage damage on five-point scale [3]	PRE Application ECHCG, percentage damage on five-point scale [4]	PRE Application SETFA, percentage damage on five-point scale (Setaria faberi (SETFA) [5])	POST Application IPOHE, percentage damage on five-point scale [6]	POST Application ABUTH, percentage damage on five-point scale [7]	POST Application AMARE, percentage damage on five-point scale [8]	POST Application ECHCG, percentage damage on five-point scale [9]	POST Application SETFA, percentage damage on five-point scale (Setaria faberi (SETFA) [10])
CC(=O)Nc1c(OC(F)F)ccc(C(=O)Nc2nnnn2C)c1Cl [Compound 1.090]	4 (4=60-79%)	5 (5=80-100%)	5 (5=80-100%)	5 (5=80-100%)	4 (4=60-79%)	4 (4=60-79%)	4 (4=60-79%)	4 (4=60-79%)	4 (4=60-79%)	4 (4=60-79%)
Cc1cccnc1C(=O)Nc1c(OC(F)F)ccc(C(=O)Nc2nnnn2C)c1Cl [Compound 1.093]	4 (4=60-79%)	5 (5=80-100%)	5 (5=80-100%)	5 (5=80-100%)	4 (4=60-79%)	4 (4=60-79%)	4 (4=60-79%)	4 (4=60-79%)	5 (5=80-100%)	4 (4=60-79%)
Cc1c(C(=O)Nc2c(OC(F)F)ccc(C(=O)Nc3nnnn3C)c2Cl)nn(C)c1C [Compound 1.098]	4 (4=60-79%)	4 (4=60-79%)	3 (3=40-59%)	1 (1=0-19%)	4 (4=60-79%)	4 (4=60-79%)	4 (4=60-79%)	4 (4=60-79%)	4 (4=60-79%)	4 (4=60-79%)
Cn1nnnc1NC(=O)c1ccc(OC(F)F)c(NC(=O)c2ccc(F)cc2)c1Cl [Compound 1.099]	3 (3=40-59%)	4 (4=60-79%)	5 (5=80-100%)	1 (1=0-19%)	1 (1=0-19%)	4 (4=60-79%)	4 (4=60-79%)	4 (4=60-79%)	4 (4=60-79%)	3 (3=40-59%)
Cn1nnnc1NC(=O)c1ccc(OC(F)F)c(NC(=O)c2ncccc2F)c1Cl [Compound 1.100]	2 (2=20-39%)	5 (5=80-100%)	5 (5=80-100%)	1 (1=0-19%)	3 (3=40-59%)	4 (4=60-79%)	4 (4=60-79%)	4 (4=60-79%)	4 (4=60-79%)	4 (4=60-79%)
COc1ccc(C(=O)Nc2c(OC(F)F)ccc(C(=O)Nc3nnnn3C)c2Cl)cc1 [Compound 1.101]	2 (2=20-39%)	4 (4=60-79%)	4 (4=60-79%)	1 (1=0-19%)	4 (4=60-79%)	4 (4=60-79%)	4 (4=60-79%)	4 (4=60-79%)	5 (5=80-100%)	4 (4=60-79%)
